Reference: ChEMBL document CHEMBL6121006, “Marine natural product-inspired discovery of novel BRD4 inhibitors with anti-inflammatory activity” (Eur J Med Chem, 2025)
Calls of active or inactive are those of the source. The calls are words filed in the database; no cut-off is given here.

Experiments:
[1] = molecular target: Bromodomain-containing protein 2 (Homo sapiens) (UniProt P25440); experiment: Inhibition of BRD2 BD1 (unknown origin) at 1 uM incubated for 2 hrs by TR-FRET assay relative to control
[2] = molecular target: T1, Bromodomain-containing protein 4 (Homo sapiens, UniProt O60885); experiment: Inhibition of human recombinant BRD4 BD2 (349 to 460 residues) extracted from Escherichia coli BL21 (DE3) incubated for 2 hrs by TR-FRET assay
Mus musculus [3] = experiment: Antiinflammatory activity against C57BL/6 mouse acute inflammation model assessed as reduction in LPS induced lung pulmonary hemorrhage at 50 to 100 mg/kg, po pre-administered for 2 hrs followed by LPS stimulation for 6 hrs; type: functional, organism-based; settings: dose 50-100 mg/kg, time 8.0 hrs
[4] = molecular target: Bromodomain testis-specific protein (Homo sapiens) (UniProt Q58F21); experiment: Inhibition of BRDT BD2 (unknown origin) at 1 uM incubated for 2 hrs by TR-FRET assay relative to control
[5] = Toxicity in C57BL/6 mouse effect on liver at 100 mg/kg, po measured after 24 hrs; type: organism-based; settings: in vivo
[6] = molecular target: T1, Bromodomain-containing protein 4; experiment: Inhibition of human recombinant BRD4 BD1 (42 to 167 residues) extracted from Escherichia coli BL21 (DE3) at 10 uM incubated for 2 hrs by TR-FRET assay relative to control
THP-1 [7] = experiment: Anti-inflammatory activity in human THP-1 cells assessed as inhibition of LPS-induced TNF-alpha level preincubated with compound for 2 hrs followed by LPS stimulation and measured after 22 hrs by ELISA method; type: functional, cell-based; settings: dose 2.5-20 µM, time 24.0 hrs
[8] = molecular target: Bromodomain-containing protein 3 (Homo sapiens) (UniProt Q15059); experiment: Inhibition of BRD3 BD2 (unknown origin) at 1 uM incubated for 2 hrs by TR-FRET assay relative to control
Chain of Bromodomain-containing protein 3 (Homo sapiens) (Q15059 2-726 limits assumed): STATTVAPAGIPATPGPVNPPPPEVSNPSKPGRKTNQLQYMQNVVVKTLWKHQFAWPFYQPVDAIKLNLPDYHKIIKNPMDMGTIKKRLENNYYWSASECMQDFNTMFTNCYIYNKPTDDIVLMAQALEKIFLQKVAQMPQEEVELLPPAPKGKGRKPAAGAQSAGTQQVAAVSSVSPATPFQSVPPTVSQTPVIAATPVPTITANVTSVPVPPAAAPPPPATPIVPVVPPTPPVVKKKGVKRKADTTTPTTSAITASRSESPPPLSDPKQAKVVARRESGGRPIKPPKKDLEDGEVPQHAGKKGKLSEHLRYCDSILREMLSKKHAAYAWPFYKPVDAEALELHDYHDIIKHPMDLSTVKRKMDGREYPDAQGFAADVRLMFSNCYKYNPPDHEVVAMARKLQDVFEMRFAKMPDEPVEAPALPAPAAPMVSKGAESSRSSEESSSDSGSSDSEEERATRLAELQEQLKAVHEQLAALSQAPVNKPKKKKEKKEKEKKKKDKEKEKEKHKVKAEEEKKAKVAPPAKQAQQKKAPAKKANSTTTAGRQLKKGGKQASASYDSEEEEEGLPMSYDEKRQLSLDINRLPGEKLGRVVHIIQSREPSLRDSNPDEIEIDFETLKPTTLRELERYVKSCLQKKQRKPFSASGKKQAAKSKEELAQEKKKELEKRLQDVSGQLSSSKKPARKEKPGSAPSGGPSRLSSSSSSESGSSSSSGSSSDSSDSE

[9] = Toxicity in C57BL/6 mouse effect on lung at 100 mg/kg, po measured after 24 hrs; type: organism-based; settings: in vivo
Mus musculus [10] = experiment: Antiinflammatory activity against LPS-induced C57BL/6 mouse acute inflammation model assessed as decrease in infiltration of renal interstitial inflammatory cells at 100 mg/kg, po pre-administered for 2 hrs followed by LPS stimulation for 6 hrs; type: functional, organism-based; settings: time 8.0 hrs
RAW264.7 [11] = experiment: Anti-inflammatory activity in mouse RAW264.7 cells assessed as inhibition of LPS-induced NO production preincubated with compound for 24 hrs followed by LPS stimulation by Griess reagent based analysis; type: functional, cell-based
[12] = molecular target: T2, Bromodomain-containing protein 9 (Homo sapiens) (UniProt Q9H8M2); experiment: Inhibition of BRD9 (unknown origin) at 1 uM incubated for 2 hrs by TR-FRET assay relative to control
T2 sequence (whole entry): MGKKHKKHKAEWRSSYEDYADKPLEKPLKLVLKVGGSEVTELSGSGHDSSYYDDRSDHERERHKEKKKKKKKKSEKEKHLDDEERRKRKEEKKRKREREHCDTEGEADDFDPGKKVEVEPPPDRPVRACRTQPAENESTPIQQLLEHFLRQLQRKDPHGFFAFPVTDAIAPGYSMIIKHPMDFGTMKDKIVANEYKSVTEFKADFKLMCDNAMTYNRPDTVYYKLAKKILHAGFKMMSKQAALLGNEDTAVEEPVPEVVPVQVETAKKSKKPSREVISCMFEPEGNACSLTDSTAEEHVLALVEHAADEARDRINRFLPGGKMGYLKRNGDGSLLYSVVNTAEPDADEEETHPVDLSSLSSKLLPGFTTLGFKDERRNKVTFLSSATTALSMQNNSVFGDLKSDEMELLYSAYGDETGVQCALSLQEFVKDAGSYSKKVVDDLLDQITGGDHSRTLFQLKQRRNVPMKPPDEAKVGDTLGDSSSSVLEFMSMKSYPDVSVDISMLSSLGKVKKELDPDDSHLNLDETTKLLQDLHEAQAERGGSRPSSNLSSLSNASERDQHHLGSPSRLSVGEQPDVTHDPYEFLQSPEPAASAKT

RAW264.7 [13] = experiment: Anti-inflammatory activity in mouse RAW264.7 cells assessed as inhibition of LPS-induced IL-6 expression preincubated with compound for 2 hrs followed by LPS stimulation and measured after 6 hrs by RT-qPCR analysis; type: functional, cell-based; settings: dose 2.5-20 µM, time 8.0 hrs
[14] = molecular target: Bromodomain testis-specific protein (Homo sapiens) (UniProt Q58F21); experiment: Inhibition of BRDT BD1 (unknown origin) at 1 uM incubated for 2 hrs by TR-FRET assay relative to control
Mus musculus [15] = experiment: Antiinflammatory activity against LPS-induced C57BL/6 mouse acute inflammation model assessed as improvement of excessive inflammatory cell infiltration in liver at 50 to 100 mg/kg, po pre-administered for 2 hrs followed by LPS stimulation for 6 hrs; type: functional, organism-based; settings: dose 50-100 mg/kg, time 8.0 hrs
THP-1 [16] = experiment: Anti-inflammatory activity in human THP-1 cells assessed as inhibition of LPS-induced IL-6 level preincubated with compound for 2 hrs followed by LPS stimulation and measured after 22 hrs by ELISA method; type: functional, cell-based; settings: dose 2.5-20 µM, time 24.0 hrs
[17] = molecular target: Transcription initiation factor TFIID subunit 1 (Homo sapiens) (UniProt P21675); experiment: Inhibition of TAF1 (unknown origin) at 1 uM incubated for 2 hrs by TR-FRET assay relative to control
Chain of Transcription initiation factor TFIID subunit 1 (Homo sapiens) (P21675 whole entry, the tested form may be a part): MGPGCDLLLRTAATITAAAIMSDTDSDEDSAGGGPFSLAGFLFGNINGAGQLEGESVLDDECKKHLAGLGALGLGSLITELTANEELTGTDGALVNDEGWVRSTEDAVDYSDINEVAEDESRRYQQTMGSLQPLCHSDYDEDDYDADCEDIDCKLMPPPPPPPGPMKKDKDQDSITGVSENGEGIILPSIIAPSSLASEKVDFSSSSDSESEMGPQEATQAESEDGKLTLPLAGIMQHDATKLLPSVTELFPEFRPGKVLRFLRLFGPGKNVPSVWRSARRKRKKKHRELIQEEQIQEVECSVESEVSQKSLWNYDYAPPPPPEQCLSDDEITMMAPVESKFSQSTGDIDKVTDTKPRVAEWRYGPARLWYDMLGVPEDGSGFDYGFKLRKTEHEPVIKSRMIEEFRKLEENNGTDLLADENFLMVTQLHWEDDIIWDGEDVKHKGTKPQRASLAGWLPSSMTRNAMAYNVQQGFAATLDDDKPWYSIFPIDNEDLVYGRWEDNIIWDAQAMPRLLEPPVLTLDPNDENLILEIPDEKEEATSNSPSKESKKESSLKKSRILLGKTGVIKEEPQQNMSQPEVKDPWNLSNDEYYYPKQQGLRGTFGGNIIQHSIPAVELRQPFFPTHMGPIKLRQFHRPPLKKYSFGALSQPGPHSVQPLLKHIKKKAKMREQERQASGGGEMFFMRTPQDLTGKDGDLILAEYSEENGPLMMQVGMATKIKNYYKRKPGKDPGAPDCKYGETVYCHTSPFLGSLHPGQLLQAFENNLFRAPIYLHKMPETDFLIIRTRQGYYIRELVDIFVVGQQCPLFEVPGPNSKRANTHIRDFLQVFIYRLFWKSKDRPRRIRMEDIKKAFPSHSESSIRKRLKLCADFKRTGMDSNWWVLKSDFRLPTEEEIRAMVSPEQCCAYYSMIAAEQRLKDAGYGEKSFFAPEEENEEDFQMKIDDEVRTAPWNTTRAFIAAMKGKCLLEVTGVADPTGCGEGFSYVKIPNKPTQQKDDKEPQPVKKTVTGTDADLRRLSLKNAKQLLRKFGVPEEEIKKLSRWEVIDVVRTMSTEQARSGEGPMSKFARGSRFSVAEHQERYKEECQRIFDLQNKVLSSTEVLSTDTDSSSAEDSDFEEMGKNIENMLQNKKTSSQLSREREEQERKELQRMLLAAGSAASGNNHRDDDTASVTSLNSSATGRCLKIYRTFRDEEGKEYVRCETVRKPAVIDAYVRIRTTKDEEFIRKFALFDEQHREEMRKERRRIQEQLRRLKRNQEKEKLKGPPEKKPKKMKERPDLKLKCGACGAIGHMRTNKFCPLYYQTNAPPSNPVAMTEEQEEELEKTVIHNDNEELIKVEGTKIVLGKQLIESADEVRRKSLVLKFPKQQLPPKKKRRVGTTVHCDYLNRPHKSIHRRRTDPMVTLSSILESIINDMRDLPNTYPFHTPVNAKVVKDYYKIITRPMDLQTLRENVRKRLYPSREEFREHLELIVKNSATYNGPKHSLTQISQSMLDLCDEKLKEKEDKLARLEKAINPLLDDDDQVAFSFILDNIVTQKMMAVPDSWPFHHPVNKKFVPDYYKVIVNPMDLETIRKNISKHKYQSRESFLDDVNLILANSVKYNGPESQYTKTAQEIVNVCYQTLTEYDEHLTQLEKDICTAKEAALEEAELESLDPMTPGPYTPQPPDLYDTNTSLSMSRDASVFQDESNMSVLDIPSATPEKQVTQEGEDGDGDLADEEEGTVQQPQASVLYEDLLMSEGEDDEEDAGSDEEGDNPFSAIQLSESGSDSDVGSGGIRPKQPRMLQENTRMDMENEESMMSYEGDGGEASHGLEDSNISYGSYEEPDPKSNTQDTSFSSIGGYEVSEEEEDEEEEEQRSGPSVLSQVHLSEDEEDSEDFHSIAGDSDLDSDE

[18] = molecular target: T1, Bromodomain-containing protein 4; experiment: Induction of thermal stabilization of human recombinant BRD4 […] (42 to 167 residues) extracted from Escherichia coli BL21 (DE3) incubated for 30 mins by thermal shift assay
Mus musculus [19] = experiment: Antiinflammatory activity against C57BL/6 mouse acute inflammation model assessed as reduction in LPS induced lung edema at 50 to 100 mg/kg, po pre-administered for 2 hrs followed by LPS stimulation for 6 hrs; type: functional, organism-based; settings: dose 50-100 mg/kg, time 8.0 hrs
Mus musculus [20] = experiment: Antiinflammatory activity against LPS-induced C57BL/6 mouse acute inflammation model assessed as increase in proportion of normal renal tubules at 100 mg/kg, po pre-administered for 2 hrs followed by LPS stimulation for 6 hrs; type: functional, organism-based; settings: time 8.0 hrs
Mus musculus [21] = experiment: Antiinflammatory activity against C57BL/6 mouse acute inflammation model assessed as reduction in LPS induced lung destruction at 50 to 100 mg/kg, po pre-administered for 2 hrs followed by LPS stimulation for 6 hrs; type: functional, organism-based; settings: dose 50-100 mg/kg, time 8.0 hrs
Mus musculus [22] = experiment: Antiinflammatory activity against LPS-induced C57BL/6 mouse acute inflammation model assessed as improvement of distorted hepatic lobular structure in liver at 50 to 100 mg/kg, po pre-administered for 2 hrs followed by LPS stimulation for 6 hrs; type: functional, organism-based; settings: dose 50-100 mg/kg, time 8.0 hrs
Mus musculus [23] = experiment: Antiinflammatory activity against LPS-induced C57BL/6 mouse acute inflammation model assessed as improvement of hepatic necrosis in liver at 50 to 100 mg/kg, po pre-administered for 2 hrs followed by LPS stimulation for 6 hrs; type: functional, organism-based; settings: dose 50-100 mg/kg, time 8.0 hrs
[24] = molecular target: CREB-binding protein (Homo sapiens) (UniProt Q92793); experiment: Inhibition of CREBBP (unknown origin) at 1 uM incubated for 2 hrs by TR-FRET assay relative to control
Chain of CREB-binding protein (Homo sapiens) (Q92793 2-2442 limits assumed): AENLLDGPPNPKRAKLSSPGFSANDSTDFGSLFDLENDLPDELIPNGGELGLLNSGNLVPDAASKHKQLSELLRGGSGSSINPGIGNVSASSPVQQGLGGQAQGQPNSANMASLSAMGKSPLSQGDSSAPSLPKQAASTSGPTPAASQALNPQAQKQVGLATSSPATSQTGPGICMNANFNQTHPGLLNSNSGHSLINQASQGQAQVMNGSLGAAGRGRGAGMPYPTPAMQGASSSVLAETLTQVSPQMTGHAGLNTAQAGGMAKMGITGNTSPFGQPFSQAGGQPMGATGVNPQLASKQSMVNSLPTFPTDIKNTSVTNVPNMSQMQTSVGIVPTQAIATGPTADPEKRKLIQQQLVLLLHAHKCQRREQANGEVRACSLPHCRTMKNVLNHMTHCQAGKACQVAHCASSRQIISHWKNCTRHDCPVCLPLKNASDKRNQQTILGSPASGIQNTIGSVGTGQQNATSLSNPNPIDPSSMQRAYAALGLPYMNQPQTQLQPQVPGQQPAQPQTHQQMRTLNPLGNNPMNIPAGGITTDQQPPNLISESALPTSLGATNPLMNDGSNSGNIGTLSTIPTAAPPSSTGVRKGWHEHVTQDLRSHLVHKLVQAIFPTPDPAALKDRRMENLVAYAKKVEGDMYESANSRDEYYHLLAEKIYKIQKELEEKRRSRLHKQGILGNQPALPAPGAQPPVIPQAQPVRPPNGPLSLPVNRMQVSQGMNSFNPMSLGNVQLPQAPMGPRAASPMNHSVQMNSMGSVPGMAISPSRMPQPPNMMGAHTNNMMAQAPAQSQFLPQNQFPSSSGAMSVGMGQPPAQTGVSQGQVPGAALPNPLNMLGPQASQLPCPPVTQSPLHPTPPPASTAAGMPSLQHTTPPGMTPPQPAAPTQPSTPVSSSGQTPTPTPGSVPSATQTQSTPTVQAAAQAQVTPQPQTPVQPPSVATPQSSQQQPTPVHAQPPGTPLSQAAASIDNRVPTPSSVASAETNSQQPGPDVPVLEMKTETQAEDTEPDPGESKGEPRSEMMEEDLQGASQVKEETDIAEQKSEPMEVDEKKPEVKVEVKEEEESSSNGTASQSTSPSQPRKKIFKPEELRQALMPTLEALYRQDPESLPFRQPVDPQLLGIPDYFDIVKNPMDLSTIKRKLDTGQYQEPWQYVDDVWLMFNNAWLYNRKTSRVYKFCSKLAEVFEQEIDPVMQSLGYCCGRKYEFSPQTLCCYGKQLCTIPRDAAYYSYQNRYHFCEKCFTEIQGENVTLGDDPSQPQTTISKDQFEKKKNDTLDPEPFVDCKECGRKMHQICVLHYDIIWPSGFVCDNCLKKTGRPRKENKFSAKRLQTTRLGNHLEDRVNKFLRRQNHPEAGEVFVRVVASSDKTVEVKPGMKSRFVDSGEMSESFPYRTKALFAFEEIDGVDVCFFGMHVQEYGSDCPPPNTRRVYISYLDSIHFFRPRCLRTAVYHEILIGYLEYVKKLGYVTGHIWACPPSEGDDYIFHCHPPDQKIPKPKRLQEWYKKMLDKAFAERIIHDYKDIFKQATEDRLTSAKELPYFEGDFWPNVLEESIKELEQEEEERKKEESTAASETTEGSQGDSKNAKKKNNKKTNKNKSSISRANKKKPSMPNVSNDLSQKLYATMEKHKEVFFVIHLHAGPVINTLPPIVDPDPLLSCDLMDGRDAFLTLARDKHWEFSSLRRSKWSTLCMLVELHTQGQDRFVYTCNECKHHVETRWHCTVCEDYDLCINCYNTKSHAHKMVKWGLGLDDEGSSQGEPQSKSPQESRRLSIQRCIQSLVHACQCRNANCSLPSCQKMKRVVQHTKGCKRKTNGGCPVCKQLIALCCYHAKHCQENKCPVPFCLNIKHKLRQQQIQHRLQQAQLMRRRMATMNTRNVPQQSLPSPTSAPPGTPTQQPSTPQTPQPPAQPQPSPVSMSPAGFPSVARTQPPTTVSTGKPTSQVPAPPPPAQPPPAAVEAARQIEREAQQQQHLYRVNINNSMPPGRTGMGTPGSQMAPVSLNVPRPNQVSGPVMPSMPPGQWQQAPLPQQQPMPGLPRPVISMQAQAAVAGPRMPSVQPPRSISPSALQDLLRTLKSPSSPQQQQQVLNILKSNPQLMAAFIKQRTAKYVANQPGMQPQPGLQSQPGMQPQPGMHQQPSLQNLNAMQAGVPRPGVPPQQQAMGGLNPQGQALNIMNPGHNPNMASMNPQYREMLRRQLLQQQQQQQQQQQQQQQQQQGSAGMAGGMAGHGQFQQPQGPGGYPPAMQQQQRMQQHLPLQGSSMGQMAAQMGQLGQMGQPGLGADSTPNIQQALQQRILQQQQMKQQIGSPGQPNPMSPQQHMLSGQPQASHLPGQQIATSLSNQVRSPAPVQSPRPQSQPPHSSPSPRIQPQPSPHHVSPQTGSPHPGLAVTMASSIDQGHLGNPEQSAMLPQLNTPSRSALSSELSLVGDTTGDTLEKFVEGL

RAW264.7 [25] = experiment: Anti-inflammatory activity in mouse RAW264.7 cells assessed as inhibition of LPS-induced IL-6 level preincubated with compound for 2 hrs followed by LPS stimulation and measured after 22 hrs by ELISA method; type: functional, cell-based; settings: dose 2.5-20 µM, time 24.0 hrs
Mus musculus [26] = experiment: Antiinflammatory activity against LPS-induced C57BL/6 mouse acute inflammation model assessed as rescue of damaged renal tubule cells in kidney at 50 to 100 mg/kg, po pre-administered for 2 hrs followed by LPS stimulation for 6 hrs; type: functional, organism-based; settings: dose 50-100 mg/kg, time 8.0 hrs

SMILES: COc1ccc(/C=C/c2nc3cc(OC)cc(OC)c3c(=O)[nH]2)cc1
- inhibition [1]: 24%
- IC50 [2]: 120 nM
- Activity (Mus musculus [3]): Active
- inhibition [4]: 7%
- Activity [5]: Non-toxic
- inhibition [6]: 81%
- Activity (THP-1 [7]): Dose-dependent-effect
- inhibition [8]: 44%
- Activity [9]: Non-toxic
- Activity (Mus musculus [10]): Active
- IC50 (RAW264.7 [11]): 1980 nM
- inhibition [12]: 12%
- Activity (RAW264.7 [13]): Dose-dependent-effect
- inhibition [14]: 6%
- Activity (Mus musculus [15]): Active
- Activity (THP-1 [16]): Dose-dependent-effect
- inhibition [17]: 5%
- Activity [18]: Active
- Activity (Mus musculus [19]): Active
- Activity (Mus musculus [20]): Active
- Activity (Mus musculus [21]): Active
- Activity (Mus musculus [22]): Active
- Activity (Mus musculus [23]): Active
- inhibition [24]: 15%
- Activity (RAW264.7 [25]): Dose-dependent-effect
- Activity (Mus musculus [26]): Active
